Reference: the supplement of paper PMC10307832

Key:
Assay in all cases: relative viability (nuclei count vs DMSO), 5 days (fraction); higher = more cells survive
[1] = compound: CC(C)N(CCCNC(=O)Nc1ccc(C(C)(C)C)cc1)C[C@H]1O[C@@H](n2ccc3c(N)ncnc32)[C@H](O)[C@@H]1O + COc1cc2c(Oc3ccc(NC(=O)C4(C(=O)Nc5ccc(F)cc5)CC4)cc3F)ccnc2cc1OCCCN1CCOCC1 [Foretinib] (partner 0.25 µM)
Outline: (§1)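 Relative viability is defined as nuclei in treated wells over nuclei in vehicle wells. Duplicate plates were run and medians reported. Lung cancer cell lines in 1536-well plates were dosed by pin tool one day after seeding, with one drug or with a fixed anchor-drug dose plus five library-drug doses (not always all listed) in √10 steps, and nuclei were counted after 5 days.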

[2] = compound: CC(C)N(CCCNC(=O)Nc1ccc(C(C)(C)C)cc1)C[C@H]1O[C@@H](n2ccc3c(N)ncnc32)[C@H](O)[C@@H]1O + C[C@@H](Oc1cc(-c2cnn(C3CCNCC3)c2)cnc1N)c1c(Cl)ccc(F)c1Cl [Crizotinib] (partner 1 µM)
Outline: as §1

Shikonin + Vorinostat = compound: CC(C)=CC[C@@H](O)C1=CC(=O)c2c(O)ccc(O)c2C1=O [Shikonin] + O=C(CCCCCCC(=O)Nc1ccccc1)NO [Vorinostat] (partner 1 µM)
Outline: as §1

Shikonin + AZD7762 = compound: CC(C)=CC[C@@H](O)C1=CC(=O)c2c(O)ccc(O)c2C1=O [Shikonin] + NC(=O)Nc1cc(-c2cccc(F)c2)sc1C(=O)N[C@H]1CCCNC1 [AZD7762] (partner 0.2 µM)
Outline: as §1

| Cell Line | relative viability ([1]; first compound 0.08 µM) | relative viability ([1]; first compound 0.253 µM) | relative viability ([1]; first compound 0.8 µM) | relative viability ([1]; first compound 2.53 µM) | relative viability ([1]; first compound 8 µM) | relative viability ([2]; first compound 0.08 µM) | relative viability ([2]; first compound 0.253 µM) | relative viability ([2]; first compound 0.8 µM) | relative viability ([2]; first compound 2.53 µM) | relative viability ([2]; first compound 8 µM) | relative viability (Shikonin + Vorinostat; first compound 0.01 µM) | relative viability (Shikonin + Vorinostat; first compound 0.1 µM) | relative viability (Shikonin + Vorinostat; first compound 0.3162 µM) | relative viability (Shikonin + Vorinostat; first compound 1 µM) | relative viability (Shikonin + AZD7762; first compound 0.01 µM) | relative viability (Shikonin + AZD7762; first compound 0.1 µM) | relative viability (Shikonin + AZD7762; first compound 0.3162 µM) | relative viability (Shikonin + AZD7762; first compound 1 µM) |
| --- | --- | --- | --- | --- | --- | --- | --- | --- | --- | --- | --- | --- | --- | --- | --- | --- | --- | --- |
| NCI-H460 | 1.05 | 1.1 | 1.03 | 1.05 | 0.996 | 0.827 | 1.1 | 0.958 | 0.88 | 0.696 | 0.919 | 0.946 | 0.959 | 0.828 | 0.739 | 0.874 | 0.597 | 0.658 |
| NCI-H596 | 0.792 | – | 0.846 | 1.02 | 0.872 | 0.934 | 0.796 | 0.938 | 1 | 1.12 | 0.45 | 0.616 | 0.612 | 0.774 | 1.06 | 1.14 | 1.09 | 1.09 |
| NCI-H647 | 1.23 | 1.27 | – | 1.17 | 1.13 | 1.01 | – | 1.05 | 1.15 | 0.953 | 0.54 | 0.624 | 0.72 | 0.513 | 0.646 | 0.406 | 0.429 | 0.529 |
| NCI-H650 | 0.966 | 1.03 | 1.05 | 1.07 | 0.962 | 0.63 | 0.709 | 0.785 | 0.719 | 0.724 | 0.425 | 0.418 | 0.465 | 0.439 | 0.962 | 1.07 | 1.17 | 0.947 |
| NCI-H727 | 0.872 | 0.891 | 0.777 | 1.13 | 0.877 | 0.767 | 0.837 | 0.899 | 0.93 | 0.854 | 1.32 | 1.44 | 1.27 | 1.14 | 0.682 | 0.584 | 0.732 | 0.647 |
| NCI-H838 | 1.05 | 0.981 | 1.17 | 0.981 | 0.943 | 0.796 | 0.873 | 0.91 | 0.778 | 0.759 | 0.704 | 0.753 | 0.775 | 0.582 | 0.97 | 1.03 | 0.97 | 1.1 |
| NCI-H1355 | 0.755 | 0.839 | 0.933 | 0.941 | 0.972 | 1.01 | 1.08 | – | 1.09 | 0.891 | 0.65 | 0.623 | 0.627 | 0.604 | 0.739 | 0.898 | 0.825 | 0.787 |
| NCI-H1437 | 1.21 | 1.2 | 1.19 | 1.23 | 1.11 | 0.924 | 0.923 | 0.962 | 0.899 | 0.898 | 0.886 | 0.841 | 0.856 | 0.736 | 1.12 | 1.1 | 1.15 | 1.11 |
| NCI-H1651 | 0.876 | 0.79 | 0.86 | 0.871 | 0.808 | 0.838 | 0.836 | 0.859 | 0.824 | 0.876 | 0.553 | 0.617 | 0.57 | 0.636 | 0.487 | 0.517 | 0.536 | 0.44 |
